Results on nine molecules are retold here after patent publication US4031219A, “Bis-homophthalimides and salts thereof” (Boehringer Ingelheim GmbH, priority 1975, dated 1977).

≈ marks a conversion by molar mass, not a printed value. Where two headings read alike, the source gives them in different places.

The subject of series [1] is isolated electrically stimulated left auricle of the guinea pig. Description: Effect on the effective refractory period of the isolated electrically stimulated left auricle of the guinea pig (maximum driving frequency). To be noted: Cavia porcellus, Tyrode solution 37° C, mean change 5 and 10 minutes after addition, graphically determined from dose-response-curves, read-out: EC50 (concentration which reduces the maximum driving frequency by 50%). How it is done: 1. Effect on the effective refractory period of the isolated electrically stimulated left auricle of the guinea pig
Guinea pigs of both sexes were killed by a blow on the neck. After opening the thorax, the heart was quickly removed and transferred to a Tyrode solution (37° C). The auricles were therein dissected, and only the left auricles were used. Electrical stimulation was performed by a Grass Stimulator, S4G, with square wave impulses of 1 millisecond duration and a stimulation voltage of 12 V. The auricles were suspended in Tyrode solution at 37° C containing NaCl: 136.8 mval/liter; KCl: 2.68 mval/liter; MgCl2 : 0.2625 mval/liter; NaH2 PO4 : 0.417 mval/liter; NaHCO3 : 11.9 mval/liter; CaCl2 : 1.8 mval/liter; glucose: 3 gm. The solution was continuously oxygenated with 98% O2 and 2% CO2. The isometric contractions were measured with a force-displacement transducer and recorded on a Grass-polygraph (P5).
The auricles were stimulated with 0.5 Hz. The maximum driving frequency was measured by increasing the stimulation rate every 10 seconds by 1 Hz. Measurements were performed three times every 5 minutes before and 5 and 10 minutes after the addition of the test compound. During the rest periods between the measurements the stimulation frequency was 0.5 Hz.
The effect of the compound was calculated as the mean change of maximum driving frequency 5 and 10 minutes after adding the compound. The compound was tested by increasing the concentration to obtain dose-response-curves and to calculate the EC50.
The maximum driving frequency is measured by increasing the stimulation rate. When the interval between two stimuli is shortened, a stimulation rate is reached at which every second stimulation falls into the refractory period of the foregoing contraction and will not be answered with a contraction. Thus, the maximum driving frequency is a measure for the effective refractory period. Compounds which reduce the maximum driving frequency prolong the refractory period.
From the dose-response-curves the following concentrations, which reduce the maximum driving frequency by 50%, were graphically determined: […]

Series [2] has as its system chloroform-induced ventricular fibrillation in mice. Description: Antiarrhythmic activity against chloroform-induced ventricular fibrillation in mice. To be noted: Mus musculus, iv, 1 minute before inducing ventricular fibrillation; male mice 20-25 gm; read-out: ED50 (dose which reduces the number of animals which show fibrillations by 50%). It counts as in vivo. How it is done:
2. Antiarrhythmic activity against chloroform-induced ventricular fibrillation in mice
Upon putting a mouse into a chloroform-saturated atmosphere, the animal is anaesthetized after 40 seconds, the spontaneous respiration stops, and after 20 seconds more, gasping respiration is seen.
During 1 minute after opening the thorax spontaneous ventricular fibrillation can be obtained in nearly all the animals or can be induced in others by touching the heart with tweezers.
Pretreatment with antiarrhythmic compounds reduces the number of animals which show fibrillations in a dose-dependent way. The dose which reduces the number of animals by 50% (ED50) is calculated by means of dose-response-curves, and the standard error is determined [Miller, L.C. and Tainter, M.L., Proc. Soc. Exp. Biol. Med. 57, 261 (1944)].
The tests were performed on male mice having a body weight of 20-25 gm. Each dose was tested on 10 animals.
The compounds were administered intravenously 1 minute before inducing ventricular fibrillation.

The next series is described as follows: Acute toxicity in mice. To be noted: mouse, in vivo, observation time: 14 days. How it is done: The acute toxicity of the test compounds was determined in mice (observation time: 14 days) after oral and/or intravenous application. The LD50 was calculated from the percentage of animals which died within the observation time after administration of various doses [see J. Pharmacol. exp. Therap. 96, 99 (1949)].

Where [3] appears, read: intravenous, read-out: LD50 i.v.

As for `CN(CCCN1C(=O)c2ccccc2C(C)(C)C1=O)CCCN1C(=O)c2ccccc2C(C)(C)C1=O` [A, n,n-bis-[3-(3,4-dihydro-4,4-dimethyl-1,3-dioxo-2-(1H)-isoquinolyl)-propyl]-methylamine], the EC50 in series [1] stood at 5.5 µg/mL (≈ 11.2 µM). Further, the ED50 in series [2] is 1.2 mg/kg.

Take `CC1(C)C(=O)N(CCCNCCCN2C(=O)c3ccccc3C(C)(C)C2=O)C(=O)c2ccccc21` [B, N,N-bis-[3-(3,4-dihydro-4,4-dimethyl-1,3-dioxo-2(1H)-isoquinolyl)propyl]-amine]: the LD50 at 336 h in “Acute toxicity in mice” (oral, read-out: LD50 p.o.) came out at 123 mg/kg. The EC50 in series [1] is 8 µg/mL (≈ 16.8 µM). For the same molecule, in series [2], the ED50 turned out to be 2.5 mg/kg.

In the case of `CCN(CCCN1C(=O)c2ccccc2C(C)(C)C1=O)CCCN1C(=O)c2ccccc2C(C)(C)C1=O` [C, n,n-bis-[3-(3,4-dihydro-4,4-dimethyl-1,3-dioxo-2(1H)-isoquinolyl)-propyl]-ethylamine], in series [1], the EC50 was found to be 2 µg/mL (≈ 3.97 µM). Besides, the ED50 in series [2] is 0.5 mg/kg.

`COc1ccc2c(c1)C(=O)N(CCN(C)CCCN1C(=O)c3ccccc3C(C)(C)C1=O)C(=O)C2(C)C` [D, n-[2-(3,4-dihydro-7-methoxy-4,4-dimethyl-1,3-dioxo-2-(1H)-isoquinolyl)-ethyl]-N-[3-(3,4-dihydro-4,4-dimethyl-1,3-dioxo-2(1H)-isoquinolyl)-propyl]-methylamine]: the EC50 in series [1] was 4.2 µg/mL (≈ 8.31 µM). Besides, the ED50 in series [2] was found to be 3.6 mg/kg.

In the case of `CN(CCN1C(=O)c2ccccc2C(C)(C)C1=O)CCN1C(=O)c2ccccc2C(C)(C)C1=O` [F, n,n-bis-[2-(3,4-dihydro-4,4-dimethyl-1,3-dioxo-2(1H)-isoquinolyl)-ethyl]-methylamine], in series [2], the ED50 amounted to 4.6 mg/kg.

`CC1(C)C(=O)N(CCCNCCN2C(=O)c3ccccc3C(C)(C)C2=O)C(=O)c2ccccc21` [G, n-[2-(3,4-dihydro-4,4-dimethyl-1,3-dioxo-2(1H)-isoquinolyl)-ethyl]-N-[3-(3,4-dihydro-4,4-dimethyl-1,3-dioxo-2(1H)-isoquinolyl)-propyl]-amine]: the EC50 in series [1] stood at 2.7 µg/mL (≈ 5.85 µM). The ED50 in series [2] is 4.7 mg/kg.

On to `CC1(C)C(=O)N(CCCCNCCCN2C(=O)c3ccccc3C(C)(C)C2=O)C(=O)c2ccccc21` [H, [3-(3,4-dihydro-4,4-dimethyl-1,3-dioxo-2(1H)-isoquinolyl)-propyl]-[4-(3,4-dihydro-4,4-dimethyl-1,3-dioxo-2(1H)-isoquinolyl)-butyl]-amine], for which, in series [1], the EC50 was 10 µg/mL (≈ 20.4 µM). Besides, the ED50 in series [2] came to 3 mg/kg.

With `CC1(C)C(=O)N(CCNCCN2C(=O)c3ccccc3C(C)(C)C2=O)C(=O)c2ccccc21` [I, bis-[2-(3,4-dihydro-4,4-dimethyl-1,3-dioxo-2(1H)-isoquinolyl)-ethyl]-amine], the LD50 at 336 h is 15 mg/kg in “Acute toxicity in mice” (setting [3]) and 315 mg/kg in the series “Acute toxicity in mice” (oral, read-out: LD50 p.o.). Besides, the EC50 in series [1] was 2.2 µg/mL (≈ 4.92 µM). Also, in series [2], the ED50 came out at 4.7 mg/kg.

For the molecule `CC1(C)C(=O)N(CCCCNCCN2C(=O)c3ccccc3C(C)(C)C2=O)C(=O)c2ccccc21` [J, [2-(3,4-dihydro-4,4-dimethyl-1,3-dioxo-2(1H)-isoquinolyl)-ethyl]-[4-(3,4-dihydro-4,4-dimethyl-1,3-dioxo-2(1H)-isoquinolyl)-butyl]-amine], the LD50 at 336 h in “Acute toxicity in mice” (setting [3]) is 10.5 mg/kg; in the series “Acute toxicity in mice” (oral, read-out: LD50 p.o.) it was 210 mg/kg. Moreover, in series [1], the EC50 stood at 1.8 µg/mL (≈ 3.78 µM). The ED50 in series [2] is 2.8 mg/kg.

In general, ED50 refers to the dose at which the effect has come halfway, by size or by number of responders. As usually defined, the LD50 is the dose expected to kill half of the subjects tested.
